Format in all cases: cell-based
One assay addresses T1, human GLP-1 receptor (Homo sapiens, UniProt P43220).
T1 construct: expressed in transfected cells; host or cells: PSC-HEK-293
In words: HTRF cAMP assay in HEK-293 cells expressing human GLP-1 receptor. How it is done:
(§1) Each vial contained 1.8 ml cells. The vials were slowly frozen to −80° C. in isopropanol, and then transferred in liquid nitrogen for storage.
(§2) Cells were resuspended in assay buffer (cell buffer plus 2 mM IBMX) and adjusted to a cell density of 1 million cells/ml.
(§3) For measurement of cAMP generation, 5 μl cells (final 5000 cells/well) and 5 μl of test compound were added to a 384-well plate, followed by incubation for 30 min at room temperature.
(§4) The cAMP generated was determined using a kit from Cisbio Corp. based on HTRF (Homogenous Time Resolved Fluorescence). The cAMP assay was performed according to manufacturer's instructions (Cisbio).

The target in assay [1] is T2, human glucagon (GCG) receptor (Homo sapiens, UniProt P47871).
T2 construct: expressed in transfected cells; host or cells: PSC-HEK-293
T2 sequence (P47871 26-477): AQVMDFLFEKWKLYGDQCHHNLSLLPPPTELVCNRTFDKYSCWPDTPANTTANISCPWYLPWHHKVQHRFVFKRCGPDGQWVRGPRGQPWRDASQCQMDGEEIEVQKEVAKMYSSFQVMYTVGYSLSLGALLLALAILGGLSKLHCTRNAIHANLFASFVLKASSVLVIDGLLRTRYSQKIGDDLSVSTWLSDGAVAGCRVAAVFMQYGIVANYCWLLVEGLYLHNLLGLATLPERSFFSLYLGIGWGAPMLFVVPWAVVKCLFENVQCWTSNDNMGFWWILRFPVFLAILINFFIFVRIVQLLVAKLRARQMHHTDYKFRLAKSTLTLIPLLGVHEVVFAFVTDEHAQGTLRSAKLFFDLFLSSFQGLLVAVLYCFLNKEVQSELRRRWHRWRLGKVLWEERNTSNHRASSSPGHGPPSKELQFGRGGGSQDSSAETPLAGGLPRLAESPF
In words: HTRF cAMP assay in HEK-293 cells expressing human glucagon receptor. The note with it: HEK-293 cells; read-out: HTRF cAMP EC50 Human GCGR. Here is the method:
as §1, §2, §3, §4
(In general: Time-resolved FRET reads energy transfer from a long-lived donor to a nearby acceptor.)

A further assay addresses T3, human GIP receptor (Homo sapiens, UniProt P48546).
T3 construct: expressed in transfected cells; host or cells: PSC-HEK-293
T3 sequence (P48546 22-466): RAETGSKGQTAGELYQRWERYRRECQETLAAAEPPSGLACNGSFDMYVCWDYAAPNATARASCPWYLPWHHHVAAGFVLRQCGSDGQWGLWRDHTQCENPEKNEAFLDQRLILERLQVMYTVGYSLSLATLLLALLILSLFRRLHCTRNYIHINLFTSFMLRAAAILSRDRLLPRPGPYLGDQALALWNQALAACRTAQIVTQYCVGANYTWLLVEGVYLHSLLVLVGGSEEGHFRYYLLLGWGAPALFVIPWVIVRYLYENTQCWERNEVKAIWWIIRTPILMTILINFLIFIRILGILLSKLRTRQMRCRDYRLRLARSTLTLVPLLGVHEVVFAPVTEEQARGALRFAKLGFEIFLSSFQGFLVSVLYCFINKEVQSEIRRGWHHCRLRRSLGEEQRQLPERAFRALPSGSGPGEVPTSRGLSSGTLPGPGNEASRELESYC
In words: HTRF cAMP assay in HEK-293 cells expressing human GIP receptor. The note with it: HEK-293 cells; read-out: HTRF cAMP EC50 Human GIPR. Here is the method: as §1, §2, §3, §4

Peptide text beside a SMILES is read from it.

T1 sequence (P43220 24-463): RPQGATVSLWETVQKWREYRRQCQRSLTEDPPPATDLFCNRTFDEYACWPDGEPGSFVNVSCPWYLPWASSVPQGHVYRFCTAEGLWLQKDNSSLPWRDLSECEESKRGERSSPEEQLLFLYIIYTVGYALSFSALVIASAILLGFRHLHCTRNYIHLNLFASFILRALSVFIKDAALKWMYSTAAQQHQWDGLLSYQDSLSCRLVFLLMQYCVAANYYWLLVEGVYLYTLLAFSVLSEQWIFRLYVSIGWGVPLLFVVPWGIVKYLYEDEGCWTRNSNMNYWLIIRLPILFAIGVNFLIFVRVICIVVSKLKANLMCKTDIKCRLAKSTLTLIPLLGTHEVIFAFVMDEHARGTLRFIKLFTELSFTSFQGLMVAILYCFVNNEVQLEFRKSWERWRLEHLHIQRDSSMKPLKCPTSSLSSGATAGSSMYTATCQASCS

With `CC[C@H](C)[C@H](NC(=O)[C@H](CO)NC(=O)[C@H](CC(C)C)NC(=O)[C@H](CC(=O)O)NC(=O)[C@H](CO)NC(=O)[C@@H](NC(=O)[C@H](Cc1ccccc1)NC(=O)[C@@H](NC(=O)CNC(=O)[C@H](CCC(=O)O)NC(=O)CNC(=O)[C@@H](N)Cc1c[nH]cn1)[C@@H](C)O)[C@@H](C)O)C(=O)N[C@@H](CCC(N)=O)C(=O)N[C@@H](CC(C)C)C(=O)N[C@@H](CC(=O)O)C(=O)N[C@@H](CCC(=O)O)C(=O)N[C@@H](CCC(=O)O)C(=O)N[C@@H](C)C(=O)N[C@H](C(=O)N[C@@H](CCCNC(=N)N)C(=O)N[C@@H](CC(C)C)C(=O)N[C@@H](Cc1ccccc1)C(=O)N[C@H](C(=O)N[C@@H](CCC(=O)O)C(=O)N[C@@H](Cc1c[nH]c2ccccc12)C(=O)N[C@@H](CC(C)C)C(=O)N[C@@H](CCC(=O)O)C(=O)N[C@@H](C)C(=O)N[C@H](C(=O)NCC(=O)N1CCC[C@H]1C(=O)N[C@H](C(=O)N[C@@H](CO)C(=O)NCC(=O)N[C@@H](C)C(=O)N1CCC[C@H]1C(=O)N1CCC[C@H]1C(=O)N1CCC[C@H]1C(=O)N[C@@H](CO)C(N)=O)C(C)C)[C@@H](C)O)[C@@H](C)CC)C(C)C` [Ab P006] (H-HGEGTFTSDLSIQLDEEAVRLFIEWLEATGPVSGAPPPS-NH2), on human GLP-1 receptor, the midpoint of the response, the EC50, lay at 0.0147 nM.

`CC[C@H](C)[C@H](NC(=O)[C@H](CO)NC(=O)[C@H](CC(C)C)NC(=O)[C@H](CC(=O)O)NC(=O)[C@H](CO)NC(=O)[C@@H](NC(=O)[C@H](Cc1ccccc1)NC(=O)[C@@H](NC(=O)CNC(=O)[C@H](CCC(=O)O)NC(=O)CNC(=O)[C@H](Cc1c[nH]cn1)NC(=O)CN)[C@@H](C)O)[C@@H](C)O)C(=O)N[C@@H](CCC(N)=O)C(=O)N[C@@H](CC(C)C)C(=O)N[C@@H](CCC(=O)O)C(=O)N[C@@H](CCC(=O)O)C(=O)N[C@@H](CCC(=O)O)C(=O)N[C@@H](C)C(=O)N[C@H](C(=O)N[C@@H](CCCNC(=N)N)C(=O)N[C@@H](CC(C)C)C(=O)N[C@@H](Cc1ccccc1)C(=O)N[C@H](C(=O)N[C@@H](CCC(=O)O)C(=O)N[C@@H](Cc1c[nH]c2ccccc12)C(=O)N[C@@H](CC(C)C)C(=O)N[C@@H](CC(C)C)C(=O)N[C@@H](C)C(=O)NCC(=O)NCC(=O)N1CCC[C@H]1C(=O)N[C@@H](CO)C(=O)N[C@@H](CO)C(=O)NCC(=O)N[C@@H](C)C(=O)N1CCC[C@H]1C(=O)N1CCC[C@H]1C(=O)N1CCC[C@H]1C(=O)N[C@@H](CO)C(N)=O)[C@@H](C)CC)C(C)C` [Ab P019] returned an EC50 on human GLP-1 receptor of 0.0276 nM. The same measure, in the same setting: to `CC[C@H](C)[C@H](NC(=O)[C@H](Cc1ccccc1)NC(=O)[C@H](CC(C)C)NC(=O)[C@H](CCC(N)=O)NC(=O)[C@@H](NC(=O)[C@H](C)NC(=O)[C@H](CCC(=O)O)NC(=O)[C@H](CCC(=O)O)NC(=O)[C@H](CCC(=O)O)NC(=O)[C@H](CC(C)C)NC(=O)[C@H](CCC(N)=O)NC(=O)[C@H](CCCCN)NC(=O)[C@H](CO)NC(=O)[C@H](CC(C)C)NC(=O)[C@H](CC(=O)O)NC(=O)[C@H](CO)NC(=O)[C@@H](NC(=O)[C@H](Cc1ccccc1)NC(=O)[C@@H](NC(=O)CNC(=O)[C@H](CCC(=O)O)NC(=O)CNC(=O)[C@@H](N)Cc1c[nH]cn1)[C@@H](C)O)[C@@H](C)O)C(C)C)C(=O)N[C@@H](CCC(=O)O)C(=O)N[C@@H](Cc1c[nH]c2ccccc12)C(=O)N[C@@H](CC(C)C)C(=O)N[C@@H](CC(C)C)C(=O)N[C@@H](C)C(=O)N[C@H](C(=O)NCC(=O)N1CCC[C@H]1C(=O)N[C@@H](CO)C(=O)N[C@@H](CO)C(=O)NCC(=O)N[C@@H](C)C(=O)N1CCC[C@H]1C(=O)N1CCC[C@H]1C(=O)N1CCC[C@H]1C(=O)N[C@@H](CO)C(N)=O)[C@@H](C)O` [Ab P010] (H-HGEGTFTSDLSKQLEEEAVQLFIEWLLATGPSSGAPPPS-NH2) belongs 0.0035 nM; to `CC[C@H](C)[C@H](NC(=O)[C@H](CO)NC(=O)[C@H](CC(C)C)NC(=O)[C@H](CC(=O)O)NC(=O)[C@H](CO)NC(=O)[C@@H](NC(=O)[C@H](Cc1ccccc1)NC(=O)[C@@H](NC(=O)CNC(=O)[C@H](CCC(=O)O)NC(=O)CNC(=O)[C@@H](N)Cc1c[nH]cn1)[C@@H](C)O)[C@@H](C)O)C(=O)N[C@@H](CCC(N)=O)C(=O)N[C@@H](CC(C)C)C(=O)N[C@@H](CC(=O)O)C(=O)N[C@@H](CCC(=O)O)C(=O)N[C@@H](CCC(=O)O)C(=O)N[C@@H](C)C(=O)N[C@H](C(=O)N[C@@H](CCCNC(=N)N)C(=O)N[C@@H](CC(C)C)C(=O)N[C@@H](Cc1ccccc1)C(=O)N[C@H](C(=O)N[C@@H](CCC(=O)O)C(=O)N[C@@H](Cc1c[nH]c2ccccc12)C(=O)N[C@@H](CC(C)C)C(=O)N[C@@H](CC(C)C)C(=O)N[C@@H](C)C(=O)N[C@H](C(=O)NCC(=O)N1CCC[C@H]1C(=O)N[C@H](C(=O)N[C@@H](CO)C(=O)NCC(=O)N[C@@H](C)C(=O)N1CCC[C@H]1C(=O)N1CCC[C@H]1C(=O)N1CCC[C@H]1C(=O)N[C@@H](CO)C(N)=O)C(C)C)[C@@H](C)O)[C@@H](C)CC)C(C)C` [Ab P005], 0.0031 nM. On to `CC[C@H](C)[C@H](NC(=O)[C@H](CC(C)C)NC(=O)[C@H](Cc1c[nH]c2ccccc12)NC(=O)[C@H](CCC(=O)O)NC(=O)[C@@H](NC(=O)[C@H](Cc1ccccc1)NC(=O)[C@H](CCC(=O)O)NC(=O)[C@H](Cc1c[nH]cn1)NC(=O)[C@@H](NC(=O)[C@H](C)NC(=O)[C@H](CCCNC(=N)N)NC(=O)[C@H](CCCCN)NC(=O)[C@H](CCC(=O)O)NC(=O)[C@H](CC(C)C)NC(=O)[C@H](CC(C)C)NC(=O)[C@H](CCCCN)NC(=O)[C@H](CO)NC(=O)[C@H](CC(C)C)NC(=O)[C@H](CC(=O)O)NC(=O)[C@H](CO)NC(=O)[C@@H](NC(=O)[C@H](Cc1ccccc1)NC(=O)[C@@H](NC(=O)CNC(=O)[C@H](CCC(=O)O)NC(=O)CNC(=O)[C@@H](N)Cc1c[nH]cn1)[C@@H](C)O)[C@@H](C)O)C(C)C)[C@@H](C)CC)C(=O)N[C@@H](C)C(=O)NCC(=O)NCC(=O)N1CCC[C@H]1C(=O)N[C@@H](CO)C(=O)N[C@@H](CO)C(=O)NCC(=O)N[C@@H](CCCCN)C(=O)N1CCC[C@H]1C(=O)N1CCC[C@H]1C(=O)N1CCC[C@H]1C(=O)N[C@@H](CCCCN)C(N)=O` [Ab P027] (H-HGEGTFTSDLSKLLEKRAVHEFIEWLIAGGPSSGKPPPK-NH2; N-terminus assumed), for which the results for the EC50 (in assay [1]; at human GIP receptor) were over 10 nM and 0.225 nM, respectively.

In turn, `CC[C@H](C)[C@H](NC(=O)[C@H](CO)NC(=O)[C@H](CC(C)C)NC(=O)[C@H](CC(=O)O)NC(=O)[C@H](CO)NC(=O)[C@@H](NC(=O)[C@H](Cc1ccccc1)NC(=O)[C@@H](NC(=O)CNC(=O)[C@H](CCC(=O)O)NC(=O)CNC(=O)[C@H](Cc1c[nH]cn1)NC(=O)CN)[C@@H](C)O)[C@@H](C)O)C(=O)N[C@@H](CCC(N)=O)C(=O)N[C@@H](CC(C)C)C(=O)N[C@@H](CCC(=O)O)C(=O)N[C@@H](CCC(=O)O)C(=O)N[C@@H](CCC(=O)O)C(=O)N[C@@H](C)C(=O)N[C@H](C(=O)N[C@@H](CCCNC(=N)N)C(=O)N[C@@H](CC(C)C)C(=O)N[C@@H](Cc1ccccc1)C(=O)N[C@H](C(=O)N[C@@H](CCC(=O)O)C(=O)N[C@@H](Cc1c[nH]c2ccccc12)C(=O)N[C@@H](CC(C)C)C(=O)N[C@@H](CC(C)C)C(=O)N[C@@H](C)C(=O)N[C@H](C(=O)NCC(=O)N1CCC[C@H]1C(=O)N[C@@H](CO)C(=O)N[C@@H](CO)C(=O)NCC(=O)N[C@@H](C)C(=O)N1CCC[C@H]1C(=O)N1CCC[C@H]1C(=O)N1CCC[C@H]1C(=O)N[C@@H](CO)C(N)=O)[C@@H](C)O)[C@@H](C)CC)C(C)C` [Ab P020] showed a half-maximal effective concentration (EC50) on human GLP-1 receptor of 0.206 nM.

With `CC[C@H](C)[C@H](NC(=O)[C@H](Cc1ccccc1)NC(=O)[C@H](CCC(=O)O)NC(=O)[C@H](Cc1c[nH]cn1)NC(=O)[C@@H](NC(=O)[C@H](C)NC(=O)[C@H](CCCNC(=N)N)NC(=O)[C@H](CCCCN)NC(=O)[C@H](CCC(=O)O)NC(=O)[C@H](CC(C)C)NC(=O)[C@H](CC(C)C)NC(=O)[C@H](CCCCN)NC(=O)[C@H](CO)NC(=O)[C@H](CC(C)C)NC(=O)[C@H](CC(=O)O)NC(=O)[C@H](CO)NC(=O)[C@@H](NC(=O)[C@H](Cc1ccccc1)NC(=O)[C@@H](NC(=O)CNC(=O)[C@H](CCC(=O)O)NC(=O)CNC(=O)[C@@H](N)Cc1c[nH]cn1)[C@@H](C)O)[C@@H](C)O)C(C)C)C(=O)N[C@@H](CCC(=O)O)C(=O)N[C@@H](Cc1c[nH]c2ccccc12)C(=O)N[C@@H](CC(C)C)C(=O)N[C@@H](CCCCN)C(=O)N[C@@H](C)C(=O)NCC(=O)NCC(=O)N1CCC[C@H]1C(=O)N[C@@H](CO)C(=O)N[C@@H](CO)C(=O)NCC(=O)N[C@@H](CCCCN)C(=O)N1CCC[C@H]1C(=O)N1CCC[C@H]1C(=O)N1CCC[C@H]1C(=O)N[C@@H](CCCCN)C(N)=O` [Ab P029] (H-HGEGTFTSDLSKLLEKRAVHEFIEWLKAGGPSSGKPPPK-NH2; N-terminus assumed), the EC50 in assay [1] was over 10 nM; on human GIP receptor, 1.37 nM.

In general, EC50 refers to the concentration at which the effect is half-maximal.

These data come from patent US20250115669A1, “FGFR1/KLB Targeting Agonistic Antigen-Binding Proteins and Conjugates Thereof with GLP-1R Agonistic Peptides” (SANOFI, priority 2020, published 2025).
